The values below come from ChEMBL document CHEMBL4350951, “Emerging and Re-Emerging Warheads for Targeted Covalent Inhibitors: Applications in Medicinal Chemistry and Chemical Biology” (J Med Chem, 2019).

Data set [1] is described as follows: Dissociation constant, pKa of the compound. It counts as physicochemical.
The subject of data set [2] is Mycobacterium tuberculosis. As to the kind of experiment: Inhibition of Mycobacterium tuberculosis ICL1 assessed as ratio of Kinact to Ki.
For the next data set, the target named is SRSF protein kinase 1 (Homo sapiens, UniProt Q96SB4). As to the kind of experiment: Inhibition of SRPK1 (unknown origin) by TR-FRET assay.
Data set [3] in a line: Cysteine reactivity assessed as cysteine oxidation. In kind it is physicochemical.
Data set [4] addresses Serine/threonine-protein kinase PLK1 (Homo sapiens, UniProt P53350). As to the kind of experiment: Inhibition of PLK1 (unknown origin).
Data set [5] is described as follows: Inhibition of PLK1 C675 mutant (unknown origin). Also on record: species or system Homo sapiens.
Data set [6] in a line: Half life in mouse at 20 mg/kg, ip. It counts as ADME, organism-based. The note with it: in vivo.
Data set [7] has as its target T1, Induced myeloid leukemia cell differentiation protein Mcl-1 (Homo sapiens, UniProt Q07820). In words: Binding kinetics to MCl-1 (unknown origin) assessed as dissociation rate constant for state one.
Data set [8] addresses T1, Induced myeloid leukemia cell differentiation protein Mcl-1. As to the kind of experiment: Binding kinetics to MCl-1 (unknown origin) assessed as dissociation rate constant for state two.
Data set [9] concerns the target ALK tyrosine kinase receptor (Homo sapiens, UniProt Q9UM73).
Description: Inhibition of ALK (unknown origin) by TR-FRET assay
Data set [10] concerns the target T2, Phosphatidylinositol 4,5-bisphosphate 3-kinase catalytic subunit delta isoform (Homo sapiens) (UniProt O00329).
T2 sequence (whole entry): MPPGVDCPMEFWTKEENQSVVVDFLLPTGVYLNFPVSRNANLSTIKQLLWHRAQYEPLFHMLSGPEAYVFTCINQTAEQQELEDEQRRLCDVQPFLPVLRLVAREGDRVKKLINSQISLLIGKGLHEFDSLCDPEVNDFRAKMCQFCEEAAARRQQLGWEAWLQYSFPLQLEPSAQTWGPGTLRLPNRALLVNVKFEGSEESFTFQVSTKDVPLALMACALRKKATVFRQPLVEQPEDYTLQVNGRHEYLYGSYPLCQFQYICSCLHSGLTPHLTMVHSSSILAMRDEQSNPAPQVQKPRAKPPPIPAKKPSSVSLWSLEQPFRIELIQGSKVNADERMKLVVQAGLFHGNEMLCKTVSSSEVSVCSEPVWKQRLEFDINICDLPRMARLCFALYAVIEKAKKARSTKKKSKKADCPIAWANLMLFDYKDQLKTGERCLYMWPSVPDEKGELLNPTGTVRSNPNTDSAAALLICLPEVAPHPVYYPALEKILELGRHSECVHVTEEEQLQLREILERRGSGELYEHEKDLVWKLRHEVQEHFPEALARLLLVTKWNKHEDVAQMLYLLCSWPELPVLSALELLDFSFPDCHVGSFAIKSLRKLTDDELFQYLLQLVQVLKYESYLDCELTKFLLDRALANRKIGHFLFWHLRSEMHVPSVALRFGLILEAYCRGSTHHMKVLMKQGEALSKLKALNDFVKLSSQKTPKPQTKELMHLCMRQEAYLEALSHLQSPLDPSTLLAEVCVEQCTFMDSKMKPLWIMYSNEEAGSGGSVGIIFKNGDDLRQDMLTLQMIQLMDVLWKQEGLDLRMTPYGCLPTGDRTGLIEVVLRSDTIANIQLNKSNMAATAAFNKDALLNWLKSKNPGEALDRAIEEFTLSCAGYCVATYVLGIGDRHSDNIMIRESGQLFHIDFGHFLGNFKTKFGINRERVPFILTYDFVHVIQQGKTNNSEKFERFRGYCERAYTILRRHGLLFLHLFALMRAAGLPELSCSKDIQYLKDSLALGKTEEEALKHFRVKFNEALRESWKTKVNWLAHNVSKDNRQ
In words: (§1) Inhibition of PI3Kdelta (unknown origin).

For data set [11], the target named is T3, Phosphatidylinositol 4,5-bisphosphate 3-kinase catalytic subunit delta isoform (Homo sapiens, UniProt O00329).
T3 sequence (O00329 whole entry): T2 sequence (whole entry)
The data set is described as §1.

A short description of data set [12]: Half life of the compound at pH 7.5. It counts as physicochemical.
Data set [13] concerns the target T4, Peptidyl-prolyl cis-trans isomerase FKBP1A (Homo sapiens, UniProt P62942). In words: Inhibition of recombinant human FKBP12 after 24 hrs by MS/MS analysis.
The target of data set [14] is T4, Peptidyl-prolyl cis-trans isomerase FKBP1A. In words: Inhibition of recombinant human FKBP12 assessed as ratio of Kinact to Ki after 24 hrs by MS/MS analysis.
Data set [15] can be described thus: Half life of the compound in aqueous buffer at pH 7.2. In kind it is physicochemical.
Data set [16] deals with Hsp90 (human). As to the kind of experiment: Inhibition of human Hsp90 by MS/MS analysis.
Data set [17] concerns Hsp90 (human). In words: Inhibition of human Hsp90 assessed as ratio of Kinact to Ki by MS/MS analysis.
Data set [18] in a line: Half life in plasma (unknown origin). In kind it is ADME, cell-free.
A short description of another data set: cells. The note with it: Homo sapiens, MOLP-8.
The target in data set [19] is Glutathione S-transferase P (Homo sapiens) (UniProt P09211). As to the kind of experiment: Inhibition of GSTP1 (unknown origin) assessed as ratio of Kinact to Ki by MS/MS analysis.
A further data set deals with T5, m7GpppX diphosphatase (Homo sapiens, UniProt Q96C86).
T5 sequence (Q96C86 whole entry): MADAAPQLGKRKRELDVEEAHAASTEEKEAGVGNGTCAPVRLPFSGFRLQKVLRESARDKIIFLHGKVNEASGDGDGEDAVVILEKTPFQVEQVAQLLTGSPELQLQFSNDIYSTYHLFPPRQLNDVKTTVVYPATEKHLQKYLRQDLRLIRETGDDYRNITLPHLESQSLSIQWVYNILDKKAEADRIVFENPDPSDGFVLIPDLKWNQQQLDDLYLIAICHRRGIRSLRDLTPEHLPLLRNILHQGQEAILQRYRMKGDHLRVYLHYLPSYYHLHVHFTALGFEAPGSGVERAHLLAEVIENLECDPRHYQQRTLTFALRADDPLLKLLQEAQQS
As to the kind of experiment: Inhibition of DcpS (unknown origin) using m7GpppA as substrate by ELISA. On the technique in general: ELISA stands for enzyme-linked immunosorbent assay.

Each structure is given as a SMILES string.

T1 sequence (Q07820 whole entry): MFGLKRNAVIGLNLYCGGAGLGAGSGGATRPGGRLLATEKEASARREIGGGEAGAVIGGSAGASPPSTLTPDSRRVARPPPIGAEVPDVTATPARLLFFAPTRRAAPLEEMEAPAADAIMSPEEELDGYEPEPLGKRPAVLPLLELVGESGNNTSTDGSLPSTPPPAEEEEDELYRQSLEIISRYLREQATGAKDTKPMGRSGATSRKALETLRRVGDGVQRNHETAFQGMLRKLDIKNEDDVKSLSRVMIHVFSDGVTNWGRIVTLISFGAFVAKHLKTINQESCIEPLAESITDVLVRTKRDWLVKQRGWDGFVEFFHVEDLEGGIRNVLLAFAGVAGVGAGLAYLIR
T4 sequence (P62942 whole entry): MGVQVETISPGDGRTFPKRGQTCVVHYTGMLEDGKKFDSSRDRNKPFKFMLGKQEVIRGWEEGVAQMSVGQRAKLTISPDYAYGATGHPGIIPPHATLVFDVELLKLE
Sequence of Serine/threonine-protein kinase PLK1 (P53350 whole entry): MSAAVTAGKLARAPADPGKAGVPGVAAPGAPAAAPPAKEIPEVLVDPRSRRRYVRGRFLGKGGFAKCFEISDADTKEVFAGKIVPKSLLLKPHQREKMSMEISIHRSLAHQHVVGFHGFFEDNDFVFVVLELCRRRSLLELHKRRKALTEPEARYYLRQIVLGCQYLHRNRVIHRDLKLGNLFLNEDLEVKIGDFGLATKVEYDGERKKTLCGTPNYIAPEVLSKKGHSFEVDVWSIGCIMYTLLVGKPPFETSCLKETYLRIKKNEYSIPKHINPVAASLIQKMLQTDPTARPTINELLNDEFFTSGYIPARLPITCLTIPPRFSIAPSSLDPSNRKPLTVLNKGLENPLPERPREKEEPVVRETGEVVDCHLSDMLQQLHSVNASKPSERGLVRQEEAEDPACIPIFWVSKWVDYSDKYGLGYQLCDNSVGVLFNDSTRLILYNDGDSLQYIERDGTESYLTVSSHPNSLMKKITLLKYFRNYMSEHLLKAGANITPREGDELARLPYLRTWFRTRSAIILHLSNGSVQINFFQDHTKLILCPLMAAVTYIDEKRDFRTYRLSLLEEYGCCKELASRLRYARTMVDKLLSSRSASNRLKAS
Sequence of SRSF protein kinase 1 (Q96SB4 whole entry): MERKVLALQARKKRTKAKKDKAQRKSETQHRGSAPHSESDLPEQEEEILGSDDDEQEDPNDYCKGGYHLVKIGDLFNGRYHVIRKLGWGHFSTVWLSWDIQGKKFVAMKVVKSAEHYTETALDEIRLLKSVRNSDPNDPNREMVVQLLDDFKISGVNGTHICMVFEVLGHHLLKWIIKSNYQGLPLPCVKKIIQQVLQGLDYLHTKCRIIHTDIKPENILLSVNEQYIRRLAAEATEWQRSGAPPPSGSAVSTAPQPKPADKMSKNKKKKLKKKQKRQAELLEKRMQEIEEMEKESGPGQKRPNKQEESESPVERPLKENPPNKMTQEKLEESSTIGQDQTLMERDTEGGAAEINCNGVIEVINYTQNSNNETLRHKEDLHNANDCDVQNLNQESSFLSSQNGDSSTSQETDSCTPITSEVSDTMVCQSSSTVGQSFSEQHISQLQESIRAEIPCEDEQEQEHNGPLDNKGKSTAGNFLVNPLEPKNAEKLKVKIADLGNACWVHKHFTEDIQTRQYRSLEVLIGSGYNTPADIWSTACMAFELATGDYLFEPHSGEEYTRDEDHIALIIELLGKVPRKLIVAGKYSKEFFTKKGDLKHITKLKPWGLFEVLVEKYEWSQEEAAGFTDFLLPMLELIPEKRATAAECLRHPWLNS
Sequence of ALK tyrosine kinase receptor (Q9UM73 whole entry, canonical isoform): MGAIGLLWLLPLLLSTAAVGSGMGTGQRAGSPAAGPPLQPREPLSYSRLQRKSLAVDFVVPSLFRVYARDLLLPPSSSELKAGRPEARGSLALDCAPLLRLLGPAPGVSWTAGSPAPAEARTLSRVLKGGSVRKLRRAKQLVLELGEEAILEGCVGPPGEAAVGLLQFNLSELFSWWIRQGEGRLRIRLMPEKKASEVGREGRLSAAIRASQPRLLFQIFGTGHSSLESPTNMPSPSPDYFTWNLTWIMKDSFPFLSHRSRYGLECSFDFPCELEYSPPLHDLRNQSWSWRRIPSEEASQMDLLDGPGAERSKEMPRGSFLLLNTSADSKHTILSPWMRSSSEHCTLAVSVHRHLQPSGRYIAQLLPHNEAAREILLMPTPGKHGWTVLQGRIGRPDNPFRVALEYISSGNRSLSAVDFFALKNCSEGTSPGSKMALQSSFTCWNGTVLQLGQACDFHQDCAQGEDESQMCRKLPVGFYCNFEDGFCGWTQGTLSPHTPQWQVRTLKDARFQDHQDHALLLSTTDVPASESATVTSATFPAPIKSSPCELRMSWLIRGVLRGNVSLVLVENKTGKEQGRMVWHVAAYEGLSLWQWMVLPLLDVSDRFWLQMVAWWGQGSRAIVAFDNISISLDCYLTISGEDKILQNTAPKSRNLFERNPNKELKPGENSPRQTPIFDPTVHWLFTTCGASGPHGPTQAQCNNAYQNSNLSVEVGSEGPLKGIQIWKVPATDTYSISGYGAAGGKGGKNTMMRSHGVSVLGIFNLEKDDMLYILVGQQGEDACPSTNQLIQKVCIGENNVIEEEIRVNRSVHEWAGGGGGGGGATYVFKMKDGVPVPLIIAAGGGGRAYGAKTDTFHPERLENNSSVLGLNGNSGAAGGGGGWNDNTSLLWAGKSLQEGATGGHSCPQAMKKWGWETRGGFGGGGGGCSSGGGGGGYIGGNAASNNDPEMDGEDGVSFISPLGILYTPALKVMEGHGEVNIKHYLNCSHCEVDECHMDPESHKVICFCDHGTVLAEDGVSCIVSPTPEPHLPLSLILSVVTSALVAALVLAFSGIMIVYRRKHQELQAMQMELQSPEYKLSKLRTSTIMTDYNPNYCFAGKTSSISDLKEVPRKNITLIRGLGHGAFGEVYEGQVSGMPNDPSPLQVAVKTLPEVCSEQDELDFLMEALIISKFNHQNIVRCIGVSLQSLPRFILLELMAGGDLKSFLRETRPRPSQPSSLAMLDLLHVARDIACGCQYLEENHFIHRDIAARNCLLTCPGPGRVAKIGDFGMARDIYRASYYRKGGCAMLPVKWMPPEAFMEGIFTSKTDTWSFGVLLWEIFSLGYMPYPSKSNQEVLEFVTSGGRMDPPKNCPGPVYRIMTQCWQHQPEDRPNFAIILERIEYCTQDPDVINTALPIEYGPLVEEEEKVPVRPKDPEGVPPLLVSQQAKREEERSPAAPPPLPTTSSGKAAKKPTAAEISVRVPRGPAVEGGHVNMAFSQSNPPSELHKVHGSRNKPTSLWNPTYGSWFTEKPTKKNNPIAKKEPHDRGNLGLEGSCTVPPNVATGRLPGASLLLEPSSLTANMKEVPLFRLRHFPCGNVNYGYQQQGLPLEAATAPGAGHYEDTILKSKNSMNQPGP
Sequence of Glutathione S-transferase P (Homo sapiens) (P09211 2-210 limits assumed): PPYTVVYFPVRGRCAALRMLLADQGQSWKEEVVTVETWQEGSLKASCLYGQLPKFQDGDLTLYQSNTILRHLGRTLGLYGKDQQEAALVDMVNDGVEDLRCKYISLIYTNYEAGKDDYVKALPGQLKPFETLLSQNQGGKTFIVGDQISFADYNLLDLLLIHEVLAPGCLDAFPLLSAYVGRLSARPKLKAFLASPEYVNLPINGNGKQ
Description for cells: Cytotoxicity against human MOLP8 cells

A word on the pKa: it is the pH at which an ionisable group is half protonated. Compound `O=C(O)CC=[N+]([O-])[O-]` displayed a pKa in [1] of 9. The Ratio in data set [2] was 2.6 ×10⁴ /M/s. The term IC50 denotes the concentration that inhibits the measured activity by half. A low value points to inhibition by little substance. At SRSF protein kinase 1, `CCc1cc2c(cc1N1CCC(N3CCOCC3)CC1)C(C)(C)c1[nH]c3cc(C#N)ccc3c1C2=O` [ALECTINIB] registered an IC50 of 11 nM. In the case of `C#CCCCC1CCC(=O)CC1=O` (stereo not drawn), in data set [3], the K amounted to 10 M⁻¹ s⁻¹.

As to `C#CCCCN1CS(=O)(=O)CC1=O`, in [3], the K came to 20 M⁻¹ s⁻¹. For `N#CCS(=O)(=O)c1ccccc1`, the K in [3] was 78 min⁻¹.

As for `O=C1CCC(=O)C1`, the K in data set [3] was 0.02 min⁻¹. For `NC(=O)c1sc2c([n+]1[O-])C(SC[C@H](N)C(=O)O)C(C(F)(F)F)=CC2[N+](=O)[O-]` (stereo partly drawn), the IC50 in data set [4] is 2500 nM; in data set [5] it was more than 100000 nM. Broadly, the half-life is the time needed for the level to fall by half in the phase considered. On to `C#Cc1cccc(Oc2ccc(-c3nn([C@@H]4CCCN(C(=O)/C=C/C(=O)OC(C)C)C4)c4ncnc(N)c34)cc2)c1`, for which, in [6], the half-life was less than 0.0333 h.

What is called koff is the rate constant with which the complex falls apart. On to `Cc1c(-c2cccc3c(CCCOc4cccc5ccccc45)c(C(=O)O)[nH]c23)c(COc2ccc(B(O)O)c(C=O)c2)nn1C`, for which the koff in [7] was found to be 0.14 s⁻¹; in [8], 0.018 s⁻¹. Take `O=C1CC(=O)c2ccccc21`: the K in data set [3] was 22.9 min⁻¹. `CCc1cc2c(cc1-c1cccc(S(=O)(=O)F)c1)C(C)(C)c1[nH]c3cc(C#N)ccc3c1C2=O` returned an IC50 in data set [9] of 11 nM. Consider `C#CCCCN1c2ccccc2C(=O)CS1(=O)=O`, for which the K in data set [3] stood at 1700 M⁻¹ s⁻¹. The same measure, in the same setting: to `O=C1CCN(Cc2ccccc2)C(=O)C1` belongs 86.4 min⁻¹. The Ki is a dissociation constant, usually derived from enzyme kinetics or from competition with a known ligand. In data set [10], `COc1ncc(-c2cc(-c3ncc(CN4CCN(C(C)C)CC4)o3)c3cn[nH]c3c2)cc1C(=O)Oc1ccc([N+](=O)[O-])cc1` gave a Kinact of 0.0055 s⁻¹. In [11], this compound gave an IC50 of 0.617 nM and a Ki of 40 nM. In data set [6], `C#Cc1cccc(Oc2ccc(-c3nn([C@@H]4CCCN(C(=O)C=C)C4)c4ncnc(N)c34)cc2)c1` came in with a half-life of 2.8 h. Take `CC(=O)CC(C)=O`: the K in data set [3] stood at 3.8 min⁻¹. `C#Cc1cccc(Oc2ccc(-c3nn([C@@H]4CCCN(C(=O)/C=C/C(=O)O)C4)c4ncnc(N)c34)cc2)c1`: the half-life in [6] turned out to be 2.15 h. With `O=S(=O)(F)c1ccccc1`, in data set [12], the half-life is 0.0833 to 0.25 h. Turning to `O=C1CCCC(=O)C1`, the K in [3] came to 0.4 min⁻¹. In the case of `CS(=O)(=O)CC#N`, the K in [3] came to 28.6 min⁻¹. In the case of `CCC(C)(C)C(=O)C(=O)N1CCCC[C@H]1C(=O)O[C@H](CCc1ccc(OC)c(OC)c1)c1cccc(OCC(=O)NCCCCCNC(=O)c2ccc(S(=O)(=O)N(CC#N)C(=O)CCCC[C@@H]3SC[C@@H]4NC(=O)N[C@@H]43)cc2)c1`, in [13], the inhibition constant (Ki) amounted to 210 nM and the Kinact was determined as 6.1 ×10⁻³ /s. Moreover, the Ratio in [14] was 2.9 ×10⁴ /M/s. The half-life in [15] was 43 h. Regarding `C#CCCCN1CC(=O)CC1=O`, the K in [3] was 330 M⁻¹ s⁻¹.

With `N#CCN(C(=O)CCCC(=O)NCCCn1c(Sc2cc3c(cc2I)OCO3)nc2c(N)ncnc21)S(=O)(=O)c1ccccc1`, the Ki in the data set on Hsp90 (human) [16] came to 62 nM. Besides, the Ratio in the data set with Hsp90 (human) [17] came to 2.9 ×10⁴ /M/s. In data set [18], `CN(C)c1ccc(S(=O)(=O)F)cc1` had a half-life of 25.1 h.

In [4], `NC(=O)c1sc2c([n+]1[O-])C(SC[C@H](N)C(=O)O)C(SC(F)(F)F)=CC2[N+](=O)[O-]` (stereo partly drawn) gave an IC50 of 400 nM.

Regarding `O=C1CS(=O)(=O)Cc2ccccc21`, the K in [3] stood at 54.9 min⁻¹.

Turning to `C[C@@H]1CCN(C(=O)CC#N)C[C@@H]1N(C)c1ncnc2[nH]ccc12` [TOFACITINIB], the K in [3] worked out at 0.4 min⁻¹. `O=C1CC(=O)NC(=O)N1` [BARBITURIC ACID]: the K in [3] came out at 0.2 min⁻¹. Broadly, the EC50 is the concentration giving half of the maximal effect. A high value points to lower potency in that assay. `Cc1c(-c2cccc3c(CCCOc4cccc5ccccc45)c(C(=O)O)n(C)c23)c(COc2ccc(B(O)O)c(C=O)c2)nn1C` came in with an EC50 in the data set “cells” of 75 nM. The koff in [7] was 0.13 s⁻¹; in data set [8], 0.01 s⁻¹. `O=C1CS(=O)(=O)N(Cc2ccccc2)c2ccccc21`: in data set [3], the K was found to be 190.5 min⁻¹. With `CC(=O)CS(=O)(=O)c1ccccc1`, in data set [3], the K was 8.7 min⁻¹. Turning to `C#CCCCN(c1nc(Cl)nc(Cl)n1)[C@@H](CC(C)C)C(=O)OC`, the Ratio in data set [19] is 3.12 M⁻¹ s⁻¹. The compound `COc1ncc(-c2cc(-c3ncc(CN4CCN(C(C)C)CC4)o3)c3cn[nH]c3c2)cc1C(=O)Oc1ccc(C)cc1C` yielded a Ki in data set [11] of 7800 nM. Regarding `Nc1nc(N)c2c(OCc3ccc(S(=O)(=O)F)cc3)cccc2n1`, the IC50 against m7GpppX diphosphatase was less than 0.02 nM. On to `C#CCCCN1CCC(=O)CC1=O`, for which the K in data set [3] is 1155 M⁻¹ s⁻¹.

Turning to `C#Cc1cccc(Oc2ccc(-c3nn([C@@H]4CCCN(C(=O)/C=C/C(=O)OC)C4)c4ncnc(N)c34)cc2)c1`, the half-life in data set [6] was less than 0.0333 h.

`O=[N+]([O-])CS(=O)(=O)c1ccccc1`: in data set [3], the K was 7.8 min⁻¹.
